Experiments:
[1] = test system: TNFα; assay: TNFα expression in RAW 264 macrophages; assay type: cell-based; conditions: RAW 264 macrophages cultured alone; compound added to calcitriol
Method: (§1) RAW 264 macrophages and 3T3-L1 preadipocytes (American Type Culture Collection) were incubated at a density of 8000 cells/cm2 (10 cm2 dish) and grown in Dulbecco's modified Eagle's medium (DMEM) containing 10% FBS and antibiotics (adipocyte medium) at 37° C. in 5% CO2 in air. Confluent 3T3-L1 preadipocytes were induced to differentiate with a standard differentiation medium consisting of DMEM-F10 (1:1, vol/vol) medium supplemented with 1% FBS, 1 μM dexamethasone, IBMX (0.5 mM) and antibiotics (1% Penicillin-Streptomycin). Preadipocytes were maintained in this differentiation medium for 3 days and subsequently cultured in adipocyte medium. Cultures were re-fed every 2-3 days to allow 90% cells to reach fully differentiation for 3T3-L1 adipocytes or grow to a confluence for RAW 264 before conducting chemical treatment.
(§2) Cells were washed with fresh adipocyte medium, re-fed with medium containing the indicated treatments, and incubated at 37° C. in 5% CO2 for 48 hours before analysis. Cell viability was measured via trypan blue exclusion.
(§3) Human adipocytes (Zen-Bio, Inc.), 3T3-L1 adipocytes, RAW264 macrophages were obtained and co-cultured by using transwell inserts with 0.4 μm porous membranes (Corning) to separate adipocytes and macrophages. All data are expressed as mean±SEM. Data were evaluated for statistical significance by analysis of one-way or two-way variance (ANOVA; means with different letter differ, p<0.05).
Adipocyte and muscle 18s, CD14, TNFα, MIP, M-CSF, IL-6 and MCP-1 were quantitatively measured using a Smart Cycler Real Time PCR System (Cepheid, Sunnyvale, Calif.) with a TaqMan 1000 Core Reagent Kit (Applied Biosystems, Branchburg, N.J.). […] Reactions of quantitative RT-PCR for standards and unknown samples were also performed according to the instructions of Smart Cycler System (Cepheid, Sunnyvale, Calif.) and TaqMan Real Time PCR Core Kit (Applied Biosystems, Branchburg, N.J.). The mRNA quantitation for each sample was further normalized using the corresponding 18s quantitation.

[2] = test system: IL-6; assay: IL-6 expression in RAW 264 macrophages; assay type: cell-based; conditions: RAW 264 macrophages cultured alone; compound added to calcitriol
Method: as §1, with “Cultures were re-fed every 2-3 days to allow 90% cells to reach fully differentiation for 3T3-L1 adipocytes or grow to a confluence for RAW 264 before conducting chemical treatment.” left out
as §2
as §3, with “p<0.05). […]” for “p<0.05).”

[3] = test system: 3T3-L1 adipocytes; assay: Cell proliferation / DNA synthesis in cultured adipocytes (CyQUANT); assay type: cell-based, mouse; conditions: compound plus glucose 30 mmol/L, 48 hours
Method: (§4) 3T3-L1 preadipocytes were incubated at a density of 8000 cells/cm^2 (10 cm^2 dish) and grown in Dulbecco's modified Eagle's medium (DMEM) containing 10% FBS and antibiotics (adipocyte medium) at 37° C. in 5% CO2 in air. Confluent preadipocytes were induced to differentiate with a standard differentiation medium consisting of DMEM-F10 (1:1, vol/vol) medium supplemented with 1% FBS, 1 μM dexamethasone, IBMX (0.5 mM) and antibiotics (1% Penicillin-Streptomycin). Preadipocytes were maintained in this differentiation medium for 3 days and subsequently cultured in adipocyte medium. Cultures were re-fed every 2-3 days to allow 90% of cells to reach full differentiation before conducting chemical treatment. Chemicals were freshly diluted in adipocyte medium before treatment. Cells were washed with fresh adipocyte medium, re-fed with medium containing the different treatments, and incubated at 37° C. in 5% CO2 in air before analysis. Cell viability was measured via trypan blue exclusion. Cells were plated in DMEM with different treatment in duplicate in 96-well plates. After 48 h, a CyQUANT Cell Proliferation Kit (Molecular Probes, Eugene, Oreg.) was used following the manufacturer's protocol. a microplate fluorometer (Packard Instrument Company, Inc., Downers Grove, Ill.) was used to measure CyQUANT fluorescence. Cell viability was determined by Trypan blue exclusion examination.

[4] = test system: 3T3-L1 adipocytes; assay: Intracellular ROS generation in cultured adipocytes (H2-DCFDA); assay type: cell-based, mouse
Method: as §4, with “exclusion. […]” for “exclusion.”, “loaded” for “plated in DMEM”, “H2-DCFDA (2 μmol/L) 30 minute before the end of the incubation period (48 h).” for “different treatment in duplicate in 96-well plates.”, “washing twice with PBS, cells were scraped and disrupted by sonication on ice (20 s). Fluorescence (emission 543 nm or 527 nm) and DNA content were then measured as described previously. The intensity of fluorescence” for “48 h, a CyQUANT Cell Proliferation Kit (Molecular Probes, Eugene, Oreg.)”, “expressed as arbitrary units per ng DNA.” for “used following the manufacturer's protocol. a microplate fluorometer (Packard Instrument Company, Inc., Downers Grove, Ill.) was used to measure CyQUANT fluorescence. Cell viability was determined by Trypan blue exclusion examination.”

[5] = test system: 3T3-L1 adipocytes; assay: Mitochondrial membrane potential (JC-1); assay type: cell-based, mouse; conditions: GDP 100 μmol/L plus H2O2
Method: 3T3-L1 preadipocytes were incubated at a density of 8000 cells/cm^2 (10 cm^2 dish) and grown in Dulbecco's modified Eagle's medium (DMEM) containing 10% FBS and antibiotics (adipocyte medium) at 37° C. in 5% CO2 in air. Confluent preadipocytes were induced to differentiate with a standard differentiation medium consisting of DMEM-F10 (1:1, vol/vol) medium supplemented with 1% FBS, 1 μM dexamethasone, IBMX (0.5 mM) and antibiotics (1% Penicillin-Streptomycin). Preadipocytes were maintained in this differentiation medium for 3 days and subsequently cultured in adipocyte medium. Cultures were re-fed every 2-3 days to allow 90% of cells to reach full differentiation before conducting chemical treatment. Chemicals were freshly diluted in adipocyte medium before treatment. […] Cell viability was measured via trypan blue exclusion.
Mitochondrial membrane potential was analyzed fluorometrically with a lipophilic cationic dye JC-1 (5,5′,6,6′-tetrachloro-1,1′,3,3′-tetraethylbenzimidazol carbocyanine iodide) using a mitochondrial potential detection kit (Biocarta, San Diego, Calif.). Mitochondrial potential was determined as the ratio of red fluorescence (excitation 550 nm, emission 600 nm) and green fluorescence (excitation 485 nm, emission 535 nm) using a fluorescence microplate reader.

[6] = test system: NADPH oxidase; assay: NADPH oxidase expression in cultured adipocytes; assay type: cell-based, mouse; conditions: glucose 30 mmol/L alone or plus compound, 48 hours
Method: (§5) 3T3-L1 preadipocytes were incubated at a density of 8000 cells/cm^2 (10 cm^2 dish) and grown in Dulbecco's modified Eagle's medium (DMEM) containing 10% FBS and antibiotics (adipocyte medium) at 37° C. in 5% CO2 in air. Confluent preadipocytes were induced to differentiate with a standard differentiation medium consisting of DMEM-F10 (1:1, vol/vol) medium supplemented with 1% FBS, 1 μM dexamethasone, IBMX (0.5 mM) and antibiotics (1% Penicillin-Streptomycin). Preadipocytes were maintained in this differentiation medium for 3 days and subsequently cultured in adipocyte medium. Cultures were re-fed every 2-3 days to allow 90% of cells to reach full differentiation before conducting chemical treatment. Chemicals were freshly diluted in adipocyte medium before treatment. Cells were washed with fresh adipocyte medium, re-fed with medium containing the different treatments, and incubated at 37° C. in 5% CO2 in air before analysis. Cell viability was measured via trypan blue exclusion. Adipocyte 18s, cyclin A, NADPH oxidase, and UCP2 were quantitatively measured using a Smart Cycler Real Time PCR System (Cepheid, Sunnyvale, Calif.) with a TaqMan 1000 Core Reagent Kit (Applied Biosystems, Branchburg, N.J.). The primers and probe sets were ordered from Applied Biosystems TaqMan® Assays-on-Demand™ Gene Expression primers and probe set collection according to manufacture's instruction. Pooled adipocyte total RNA was serial-diluted in the range of 1.5625-25 ng and used to establish a standard curve; total RNAs for unknown samples were also diluted in this range. Reactions of quantitative RT-PCR for standards and unknown samples were also performed according to the instructions of Smart Cycler System (Cepheid, Sunnyvale, Calif.) and TaqMan Real Time PCR Core Kit (Applied Biosystems, Branchburg, N.J.). The mRNA quantitation for each sample was further normalized using the corresponding 18s quantitation.

[7] = test system: cyclin A; assay: Cyclin A expression in cultured adipocytes; assay type: cell-based, mouse; conditions: compound plus glucose 30 mmol/L, 48 hours
Method: as §5, with “Cells were washed with fresh adipocyte medium, re-fed with medium containing the different treatments, and incubated at 37° C. in 5% CO2 in air before analysis.” left out, “The primers and probe sets were ordered from Applied Biosystems TaqMan® Assays-on-Demand™ Gene Expression primers and probe set collection according to manufacture's instruction. Pooled adipocyte total RNA was serial-diluted in the range of 1.5625-25 ng and used to establish a standard curve; total RNAs for unknown samples were also diluted in this range.” left out

[8] = test system: C2C12 myotubes; assay: Fatty acid oxidation (palmitate oxidation) in muscle cells; assay type: cell-based, murine
Method: FIG. 53: Fatty acid oxidation was determined via palmitate oxidation. […] Data are corrected for DNA content. Values are presented as mean±SEM, n=6. Means with different letter differ with p<0.05.
The adipose tissue-skeletal muscle endocrine axis may play a potential role in regulating metabolic energy partitioning. […] While both calcium and dairy accelerate adipose tissue loss, dairy exerts a substantially greater effect and exerts a protective effect on lean tissue during hypocaloric diets. We have shown that dietary calcium modulation of adiposity is mediated, in part, by suppression of calcitriol, while the additional effect of dairy is mediated by additional bioactive components; these include the high concentration of leucine, a key factor in the regulation of muscle protein turnover. […] However, the effect of leucine and calcium, in regulating this process is unclear. Accordingly, present study was designed to investigate the effect of leucine, calcitriol and calcium on energy metabolism in murine adipocytes and muscle cells. Leucine induced a 41% increase in fatty acid oxidation in C2C12 muscle cells (p<0.001) and decreased fatty acid synthase gene expression by 66% (p<0.001) in 3T3-L1 adipocytes. Calcitriol decreased muscle cell fatty acid oxidation by 17% (p<0.05) and increased adipocyte FAS gene expression by 3-fold (p<0.05).

[9] = test system: fatty acid synthase; assay: Fatty acid synthase gene expression in adipocytes; assay type: cell-based, murine
Description: The adipose tissue-skeletal muscle endocrine axis may play a potential role in regulating metabolic energy partitioning. […] However, the effect of leucine and calcium, in regulating this process is unclear. Accordingly, present study was designed to investigate the effect of leucine, calcitriol and calcium on energy metabolism in murine adipocytes and muscle cells.

[10] = test system: C2C12 myotubes; assay: IL-15 release by myotubes (ELISA); assay type: cell-based, murine; conditions: for effect on IL-15 release: C2C12 myotubes, 48 hours
Method: IL-15 release in the medium was determined using ELISA. Data are corrected for DNA content. Values are presented as mean±SEM, n=6. Means with different letter differ with p<0.05.

With `O=[N+]([O-])c1ccc(O)c([N+](=O)[O-])c1` [DNP] the “effect on calcitriol stimulated TNFα expression” value [1] was “blocked” and the “effect on calcitriol stimulated IL-6 expression” value [2] was “blocked”.

With `Nc1nc2c(ncn2[C@@H]2O[C@H](COP(=O)(O)OP(=O)(O)O)[C@@H](O)[C@H]2O)c(=O)[nH]1` [GDP] the “effect on glucose induced DNA synthesis” value [3] was “augmented”, the “increase in ROS production compared with H2O2 treatment alone” value ([4]; GDP 100 μmol/L plus H2O2, 48 hours, p<0.01) was 24% and the “effect on high glucose induced ROS production” value ([4]; compound plus glucose 30 mmol/L, 48 hours) was “further stimulated”. The “augmentation of the H2O2 effect on mitochondrial potential” value [5] was 10%, the “effect on NADPH oxidase expression” value [6] was “suppressed” and the “effect on glucose stimulated cyclin A expression” value [7] was “augmented”.

For `O=C[C@H](O)[C@@H](O)[C@H](O)[C@H](O)CO` [glucose], the “effect on ROS production” value ([4]; glucose 30 mmol/L, 48 hours, p<0.05) was “increased ROS production significantly” and the “effect on NADPH oxidase expression” value [6] was “increased”.

For `CC(C)C[C@H](N)C(=O)O` [leucine], the “increase in fatty acid oxidation” value ([8]; C2C12 muscle cells, leucine 2.5 mM, 48 hours, p<0.001) was 41%, the “effect on conditioned medium decreased fatty acid oxidation in muscle cells” value ([8]; adipocytes conditioned with leucine and/or nifedipine) was “attenuated” and the “effect on calcitriol decreased muscle cell fatty acid oxidation” value ([8]; compound added to calcitriol) was “partially reversed”. For the same molecule, the “decrease in fatty acid synthase gene expression” value ([9]; 3T3-L1 adipocytes, p<0.001) was 66%, the “effect on calcitriol increased adipocyte FAS gene expression” value ([9]; compound added to calcitriol) was “partially reversed” and the “effect on IL-15 release” value [10] was “without effect”.

B1: adiponectin: adipokine added to C2C12 myotubes at 70 ng/ml (protein, UniProt Q15848 19-244, looked up)
Adiponectin: ETTTQGPGVLLPLPKGACTGWMAGIPGHPGHNGAPGRDGRDGTPGEKGEKGDPGLIGPKGDIGETGVPGAEGPRGFPGIQGRKGEPGEGAYVYRSAFSVGLETYVTIPNMPIRFTKIFYNQQNHYDGSTGKFHCNIPGLYYFAYHITVYMKDVKVSLFKKDKAMLFTYDQYQENNVDQASGSVLLHLEVGDQVWLQVYGEGERNGLYADNDNDSTFTGFLLYHDTN
With B1 the “effect on fatty acid oxidation” value ([8]; C2C12 myotubes, adiponectin 70 ng/ml, 48 hours) was “markedly increased”, the “effect on fatty acid oxidation suppressed by calcitriol” value ([8]; in the presence of leucine) was “restored” and the “effect on IL-15 release” value [10] was “significantly increased”. For the same molecule, the “effect on calcitriol inhibition of IL-15 release” value ([10]; adiponectin 70 ng/ml plus calcitriol 10 nM) was “partially reversed”.
